Measurements as given in patent publication US20220145264A1, “CULTURE MEDIUM FOR MAMMALIAN EXPANDED POTENTIAL STEM CELLS, COMPOSITION, AND METHODS THEREOF” (THE UNIVERSITY OF HONG KONG, priority 2019, published 2022).
Entries after “also recorded” stand apart in the source; their conditions may differ.

Legend:
[1] = system: pEPSCs^Emb; assay: Requirement of individual culture components for pEPSCs (RT-qPCR, AP+ colony formation); format: cell-based, porcine
Experimental: Porcine and human EPSC cultures were routinely maintained on STO feeders. STO feeder plates were prepared 3-4 days before passaging by thawing and plating the mitomycin C inactivated STO cells on 0.1% gelatinised plates at the density of ˜1.1×10^4 cells/cm^2. Porcine/human EPSC cells were maintained on STO feeder layers and enzymatically passaged every 3-5 days by a brief PBS wash followed by treatment for 3-5 minutes with 0.25% trypsin/EDTA (Gibco, Cat. No. 25500-054). The cells were dissociated and centrifuged (300 g×5 minutes) in M10 medium. M10: knockout DMEM (Gibco, Cat. No. 10829-018), 10% FBS (Gibco, Cat. No. 10270), 1× Glutamine Penicillin-Streptomycin (Thermo Fisher Scientific, Cat. No. 11140050) and 1×NEAA (Thermo Fisher Scientific, Cat. No. 10378-016). After removing supernatant, the porcine/human EPSCs were re-suspended and seeded in pEPSCM/hEPSCM supplemented with 5 μM ROCK inhibitor Y-27632 (Tocris, Cat. No. 1254). 5% FBS (Gibco, Cat. No. 10270) and 10% KnockOut Serum Replacement (KSR) (Gibco, Cat. No. 10828028) were added in pEPSCM and hEPSCM respectively to improve cells survive. 12-24 hours later, medium was switched to pEPSCM/hEPSCM only. Both pEPSCM and hEPSCM are N2B27 based media. N2B27 basal media (500 ml) was prepared by inclusion of the following components: 482.5 ml DMEM/F-12 (Gibco, Cat. No. 21331-020), 2.5 ml N2 supplement (Thermo Fisher Scientific, Cat. No. 17502048), 5 ml B27 supplement (Thermo Fisher Scientific, Cat. No. 17504044), 5 ml 1× Glutamine Penicillin-Streptomycin (Thermo Fisher Scientific, Cat. No. 11140-050), and 5 ml 1×NEAA (Thermo Fisher Scientific, Cat. No. 10378-016), 0.1 mM 2-mercaptoethanol (Sigma, Cat. No. M6250). pEPSCM (500 ml) was generated by adding the following small molecules and cytokines into 500 ml N2B27 basal media: 0.2 μM CHIR99021(GSK3i, TOCRIS, Cat. No. 4423), 1 μM WH-4-023 (SRC inhibitor, TOCRIS, Cat. No. 5413), 2.5 μM XAV939 (Sigma, Cat. No. X3004) or 2.5 μM IWR-1 (TOCRIS, Cat. No. 3532), […] Vitamin C (Sigma, Cat. No. 49752-100G), 10 ng/ml LIF (Stem Cell Institute, University of Cambridge. SCI) and 20 ng/ml ACTIVIN (SCI). hEPSCM (500 ml) was generated by adding the following components into 500 ml N2B27 basal media: 1.0 μM CHIR99021(GSK3 inhibitor, TOCRIS, Cat. No. 4423), 0.5 μM A-419259 (SRC inhibitor, TOCRIS, Cat. No. 3914), 2.5 μM XAV939 (Sigma, Cat. No. X3004), […] Vitamin C (Sigma, Cat. No. 49752-100G), 10 ng/ml LIF (SCI). Although both targeting SRC family kinases (SFKs), WH-4-023 and A419259 were preferred for porcine and human EPSCs, respectively. […] The concentrations of CHIR99021 for porcine and human EPSC cultures are 0.2 μM and 1.0 μM, respectively. […] 0.25 μM SB 590885 (BRAF inhibitor, R&D, Cat. No. 2650) and 2.0 μM SP600125 ([…], TOCRIS, Cat. No. 1496) were included to improve porcine and human EPSC cultures, but they were not essential for the routine maintenance of porcine and human EPSCs. All cell cultures in this paper were performed under conditions of 37° C. and 5% CO2 unless stated otherwise.
Total RNA was isolated using an RNeasy Mini Kit (Qiagen, Cat. No. 74106) for cultured cells or RNeasy Micro Kit (Qiagen, Cat. No. 74034) for sorted NANOS3-mCherry^+ cells. RNA was subsequently quantified and treated with gDNA WipeOut to remove genomic DNA. Complementary DNA (cDNA) was prepared using a QuantiTect Reverse Transcription Kit (Qiagen, Cat. No. 205311). RT-qPCR primers or TaqMan Gene Expression Assays (Life Technologies) are listed in Supplementary Table 10 and 11. ABsolute Blue qPCR ROX Mix (ABgene, Cat. No. AB4138B) were used for probe based qPCR assays and SYBR Green ROX qPCR Mastermix (Qiagen, Cat. No. 330523) were used for primer based qPCR assays. All qPCR reactions were performed on ABI 7900 HT Sequence Detection System (Life Technologies). Information on all primers and probes used for qPCR analysis are provided in Supplementary Table 10 and 11. Gene expression was determined relative to GAPDH using the […]. […]

[2] = system: H1-EPSCs; assay: EB formation assay of H1-EPSCs, lineage gene expression; format: cell-based, human; settings: 5.0 ng/ml supplemented in hEPSCM
Experimental: Porcine and human EPSCs were trypsinised and seeded in gelatinised 6-well plates at a density of 4×10^6 cells/well for pre-differentiation. M15 media supplemented with 20 ng/ml ACTIVIN A (SCI) and 5 μM Rock inhibitor Y-27632 were used to culture the replated cells. The next day, the cells were detached using 0.25% trypsin/EDTA (Gibco, Cat. No. 25500-054) and plated to ultra-low cell attachment U-bottom 96-well plates (Corning, Cat. No. 7007) at a density of 5,000-6,000 cells/well in 200 μl M10 medium. After 7-8 days of growing, the EBs were collected for analysis. 0.25% (v/v) poly-vinyl alcohol (Sigma, Cat. No. 341584) was added in the medium to help cells aggregation.
Total RNA was isolated using an RNeasy Mini Kit (Qiagen, Cat. No. 74106) for cultured cells or RNeasy Micro Kit (Qiagen, Cat. No. 74034) for sorted NANOS3-mCherry^+ cells. RNA was subsequently quantified and treated with gDNA WipeOut to remove genomic DNA. Complementary DNA (cDNA) was prepared using a QuantiTect Reverse Transcription Kit (Qiagen, Cat. No. 205311). RT-qPCR primers or TaqMan Gene Expression Assays (Life Technologies) are listed in Supplementary Table 10 and 11. […] Gene expression was determined relative to GAPDH using the […]. […]

O=C(NOC[C@H](O)CO)c1ccc(F)c(F)c1Nc1ccc(I)cc1F [PD0325901]
pEPSC survival as measured by colony formation in serial passaging ([1]; 0.1 μM added to pEPSCM): decreased pEPSC survival

ACTIVIN A: Human Recombinant ACTIVIN A cytokine
cell survival and pluripotency factor expression ([1]; removing ACTIVIN A from pEPSCM): massive cell loss and down-regulation of pluripotency factors
embryonic mesendoderm lineage differentiation / lineage gene expression in EBs [2]: stronger propensity for embryonic mesendoderm lineage differentiation; also recorded: substantially increased
